Measurements from patent publication US10344025B2, “GLS1 inhibitors for treating disease” (Board of Regents, The University of Texas System, priority 2014, dated 2019).

Assays:
[1] = biological target: purified recombinant human GAC (GLS1) (Homo sapiens (Human), UniProt O94925); assay: GLS1 Enzymatic Activity Assay (dual-coupled enzymatic assay, resorufin/Amplex UltraRed readout); type: biochemical;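 further: glutamate from GAC coupled via glutamate oxidase and peroxidase to resorufin, read as fluorescence (ex 530, em 590 nm) kinetically or at 20 min, four-parameter logistic IC50 fit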
Chain of purified recombinant human GAC (GLS1) (O94925 other isoform, or with tags, fused parts or gaps): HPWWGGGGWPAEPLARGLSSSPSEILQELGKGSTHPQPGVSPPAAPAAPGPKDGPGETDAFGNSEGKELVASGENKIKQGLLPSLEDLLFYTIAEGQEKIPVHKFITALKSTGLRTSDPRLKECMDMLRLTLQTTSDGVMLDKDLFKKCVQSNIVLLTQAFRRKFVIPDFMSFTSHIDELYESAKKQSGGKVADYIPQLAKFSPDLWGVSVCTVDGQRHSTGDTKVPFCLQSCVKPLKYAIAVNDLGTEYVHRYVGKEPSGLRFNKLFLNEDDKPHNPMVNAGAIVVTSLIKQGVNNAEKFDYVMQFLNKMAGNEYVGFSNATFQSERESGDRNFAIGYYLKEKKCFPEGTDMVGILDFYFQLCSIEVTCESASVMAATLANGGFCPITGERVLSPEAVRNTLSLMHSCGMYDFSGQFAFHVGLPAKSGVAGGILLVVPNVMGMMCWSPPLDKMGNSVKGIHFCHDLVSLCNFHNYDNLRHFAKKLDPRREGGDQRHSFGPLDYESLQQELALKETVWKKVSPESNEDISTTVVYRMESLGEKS

A549 cells = assay: Proliferation Assay (A549 viability, Cell Titer Fluor, 72 hours); type: cell-based; conditions: Homo sapiens
Outline: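 Cell Titer Fluor fluorescence after 72 h compound treatment (0.5% DMSO, 37 °C, 5% CO2) of A549 cells plated 24 h earlier at 1000/well. Four-parameter logistic fitting gave IC50.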

| SMILES | IC50 [1] [nM] | EC50 (A549 cells; A549, 72 h) [nM] | EC50 (A549 cells) [nM] |
| --- | --- | --- | --- |
| O=C(CN1CCC(F)(F)CC1)Nc1cn(CCCCn2cc(C(=O)NCc3cccc(OC(F)(F)F)c3)nn2)nn1 [Example 332, 1-(4-(4-(2-(4,4-difluoropiperidin-1-yl)acetamido)-1H-1,2,3-triazol-1-yl)butyl)-N-(3-(trifluoromethoxy)benzyl)-1H-1,2,3-triazole-4-carboxamide] | < 100 |  | 100 to 500 |
| O=C(CC1CCCC1)Nc1cn(CCCCn2cc(C(=O)NCC3CCCC3)nn2)nn1 [Example 288, 1-{4-[4-(2-cyclopentylacetamido)-1H-1,2,3-triazol-1-yl]butyl}-N-(cyclopentylmethyl)-1H-1,2,3-triazole-4-carboxamide] | 100 to 500 | 500 to 5000 |  |
| CNC(=O)c1cn(C[C@H](F)CCc2ccc(NC(=O)Cc3ccccc3)nn2)nn1 [Example 273, (R)-1-(2-fluoro-4-(6-(2-phenylacetamido)pyridazin-3-yl)butyl)-N-methyl-1H-1,2,3-triazole-4-carboxamide] | < 100 | < 100 |  |
| O=C(NCc1cncc(C(F)(F)F)c1)c1cn(CCCCn2cc(C(=O)NCc3cc(C4CC4)ccn3)nn2)nn1 [Example 135, 1-[4-(4-{[(4-cyclopropylpyridin-2-yl)methyl]carbamoyl}-1H-1,2,3-triazol-1-yl)butyl]-N-{[5-(trifluoromethyl)pyridin-3-yl]methyl}-1H-1,2,3-triazole-4-carboxamide] | < 100 | < 100 |  |
| O=C(Cc1ccccn1)Nc1nnc(CC[C@@H](F)Cn2cc(C(=O)NCc3ccc(C(F)(F)F)cn3)nn2)s1 [Example 201, (R)-1-(2-fluoro-4-(5-(2-(pyridin-2-yl)acetamido)-1,3,4-thiadiazol-2-yl)butyl)-N-((5-(trifluoromethyl)pyridin-2-yl)methyl)-1H-1,2,3-triazole-4-carboxamide] | < 100 | 100 to 500 |  |
| O=C(NCc1cc(C(F)(F)F)ccn1)c1cn(CC(F)CCn2cc(C(=O)N[C@H](CO)c3ccccc3)nn2)nn1 (stereo partly drawn) [Example 130, 1-[2-fluoro-4-(4-{[(1S)-2-hydroxy-1-phenylethyl]carbamoyl}-1H-1,2,3-triazol-1-yl)butyl]-N-1{[4-(trifluoromethyl)pyridin-2-yl]methyl}-1H-1,2,3-triazole-4-carboxamide] | 100 to 500 | 100 to 500 |  |
| O=C(CN1CC(F)C1)Nc1cn(CC(F)CCn2cc(C(=O)NCc3cc(OC(F)(F)F)ccc3F)nn2)nn1 (stereo not shown) [Example 372, 1-(3-fluoro-4-(4-(2-(3-fluoroazetidin-1-yl)acetamido)-1H-1,2,3-triazol-1-yl)butyl)-N-(2-fluoro-5-(trifluoromethoxy)benzyl)-1H-1,2,3-triazole-4-carboxamide] | < 100 |  | 100 to 500 |
| O=C(NCc1cncc(C(F)(F)F)c1)c1cn(CCCCn2cc(C(=O)NCC3CCCC3)nn2)nn1 [Example 84] | 100 to 500 | 100 to 500 |  |
| CNC(=O)c1cn(CCCCc2ccc(NC(=O)[C@@H](C)c3ccccc3)nn2)nn1 [Example 179, N-methyl-1-(4-{6-[(2S)-2-phenylpropanamido]pyridazin-3-yl}butyl)-1H-1,2,3-triazole-4-carboxamide] | < 100 | 500 to 5000 |  |
| CNC(=O)c1cn(CCC(F)Cn2cc(C(=O)NCc3ccc(C(F)(F)F)nc3)nn2)nn1 (stereo not shown) [Example 186, 1-{3-fluoro-4-[4-({[6-(trifluoromethyl)pyridin-3-yl]methyl}carbamoyl)-1H-1,2,3-triazol-1-yl]butyl}-N-methyl-1H-1,2,3-triazole-4-carboxamide] | 100 to 500 | 500 to 5000 |  |
| O=C(NCc1cccc(Cl)c1)c1cn(CCCCn2cc(C(=O)NCc3cc(C(F)(F)F)ccn3)nn2)nn1 [Example 111, 1-[4-(4-{[(3-chlorophenyl)methyl]carbamoyl}-1H-1,2,3-triazol-1-yl)butyl]-N-{[4-(trifluoromethyl)pyridin-2-yl]methyl}-1H-1,2,3-triazole-4-carboxamide] | < 100 | < 100 |  |
| CNC(=O)c1cn(C[C@H](F)CCc2ccc(NC(=O)Cc3cc(OC4CCOCC4)ccn3)nn2)nn1 [Example 271, (R)-1-(2-fluoro-4-(6-(2-(4-((tetrahydro-2H-pyran-4-yl)oxy)pyridin-2-yl)acetamido)pyridazin-3-yl)butyl)-N-methyl-1H-1,2,3-triazole-4-carboxamide] | < 100 | < 100 |  |
| CNC(=O)c1cn(CC(F)CCc2ccc(NC(=O)Cc3cc(OC(F)F)ccn3)nn2)nn1 (stereo not shown) [Example 274, 1-(4-(6-(2-(4-(difluoromethoxy)pyridin-2-yl)acetamido)pyridazin-3-yl)-2-fluorobutyl)-N-methyl-1H-1,2,3-triazole-4-carboxamide] | < 100 | < 100 |  |

Further lines, with some results ahead:

| IC50 [1] [nM] | EC50 (A549 cells; A549, 72 h) [nM] | SMILES | EC50 (A549 cells) [nM] |
| --- | --- | --- | --- |
| < 100 | < 100 | O=C(Cc1ccccn1)Nc1cn(CCCCn2cc(C(=O)NCc3cc(OC(F)(F)F)ccc3F)nn2)nn1 [Example 337, N-{[2-fluoro-5-(trifluoromethoxy)phenyl]methyl}-1-(4-{4-[2-(pyridin-2-yl)acetamido]-1H-1,2,3-triazol-1-yl}butyl)-1H-1,2,3-triazole-4-carboxamide] |  |
| 100 to 500 | 500 to 5000 | O=C(Cc1cccnc1)Nc1cn(CCCCn2cc(C(=O)NCc3cccnc3)nn2)nn1 [Example 320, 1-(4-{4-[2-(pyridin-3-yl)acetamido]-1H-1,2,3-triazol-1-yl}butyl)-N-(pyridin-3-ylmethyl)-1H-1,2,3-triazole-4-carboxamide] |  |
| < 100 | < 100 | O=C(NCc1ccc(C(F)(F)F)cn1)c1cn(CC(F)CCc2nnc(C(=O)NCc3cc(OC(F)(F)F)ccc3F)s2)nn1 (stereo not shown) [Example 448, 5-{3-fluoro-4-[4-({[5-(trifluoromethyl)pyridin-2-yl]methyl}carbamoyl)-1H-1,2,3-triazol-1-yl]butyl}-N-{[2-fluoro-5-(trifluoromethoxy)phenyl]methyl}-1,3,4-thiadiazole-2-carboxamide] |  |
| < 100 | 100 to 500 | O=C(Cc1ccccn1)Nc1cn(CCCCn2cc(C(=O)NCc3cc(Cl)ccc3F)nn2)nn1 [Example 338, N-[(5-chloro-2-fluorophenyl)methyl]-1-(4-{4-[2-(pyridin-2-yl)acetamido]-1H-1,2,3-triazol-1-yl}butyl)-1H-1,2,3-triazole-4-carboxamide] |  |
| < 100 | < 100 | O=C(NCc1cc(C(F)(F)F)ccn1)c1cn(CC(F)CCc2nnc(C(=O)NCc3ccc(C(F)(F)F)cn3)s2)nn1 (stereo not shown) [Example 489, 5-{3-fluoro-4-[4-({[4-(trifluoromethyl)pyridin-2-yl]methyl}carbamoyl)-1H-1,2,3-triazol-1-yl]butyl}-N-{[5-(trifluoromethyl)pyridin-2-yl]methyl}-1,3,4-thiadiazole-2-carboxamide] |  |
| 100 to 500 | 100 to 500 | O=C(NCc1cc(C(F)(F)F)ccn1)c1cn(CC(F)CCc2nnc(C(=O)NCC(F)(F)F)s2)nn1 (stereo not shown) [Example 499, 5-{3-fluoro-4-[4-({[4-(trifluoromethyl)pyridin-2-yl]methyl}carbamoyl)-1H-1,2,3-triazol-1-yl]butyl}-N-(2,2,2-trifluoroethyl)-1,3,4-thiadiazole-2-carboxamide] |  |
| < 100 | 100 to 500 | O=C(NCc1cc(OC(F)(F)F)ccc1F)c1cn(CCC(F)Cn2cc(C(=O)N[C@@H](CO)c3ccccc3)nn2)nn1 (stereo partly drawn) [Example 453, 1-{2-fluoro-4-[4-({[2-fluoro-5-(trifluoromethoxy)phenyl]methyl}carbamoyl)-1H-1,2,3-triazol-1-yl]butyl}-N-[(1R)-2-hydroxy-1-phenylethyl]-1H-1,2,3-triazole-4-carboxamide] |  |
| < 100 | < 100 | O=C(NCc1cc(OC(F)(F)F)ccc1F)c1cn(CCC(F)Cn2cc(C(=O)NCc3ccc(C(F)(F)F)cn3)nn2)nn1 (stereo not shown) [Example 423, 1-{2-fluoro-4-[4-({[2-fluoro-5-(trifluoromethoxy)phenyl]methyl}carbamoyl)-1H-1,2,3-triazol-1-yl]butyl}-N-{[5-(trifluoromethyl)pyridin-2-yl]methyl}-1H-1,2,3-triazole-4-carboxamide] |  |
| < 100 | 100 to 500 | O=C(Cc1ccccn1)Nc1cn(CCCCn2cc(C(=O)NCc3cccc(OC(F)(F)F)c3)nn2)nn1 [Example 293, 1-(4-{4-[2-(pyridin-2-yl)acetamido]-1H-1,2,3-triazol-1-yl}butyl)-N-{[3-(trifluoromethoxy)phenyl]methyl}-1H-1,2,3-triazole-4-carboxamide] |  |
| 100 to 500 | 100 to 500 | O=C(NCC1CCCOC1)c1cn(CCC(F)Cn2cc(C(=O)NCc3cc(C(F)(F)F)ccn3)nn2)nn1 (stereo not shown) [Example 473, 1-(2-fluoro-4-{4-[(oxan-3-ylmethyl)carbamoyl]-1H-1,2,3-triazol-1-yl}butyl)-N-{[4-(trifluoromethyl)pyridin-2-yl]methyl}-1H-1,2,3-triazole-4-carboxamide] |  |
| < 100 | < 100 | O=C(NCc1cccc(OC(F)(F)F)c1)c1cn(CC(F)CCc2nnc(C(=O)NCc3cncc(C(F)(F)F)c3)s2)nn1 (stereo not shown) [Example 483, 5-{3-fluoro-4-[4-({[3-(trifluoromethoxy)phenyl]methyl}carbamoyl)-1H-1,2,3-triazol-1-yl]butyl}-N-{[5-(trifluoromethyl)pyridin-3-yl]methyl}-1,3,4-thiadiazole-2-carboxamide] |  |
| < 100 | < 100 | Cc1ccc(CNC(=O)c2cn(CCCCn3cc(NC(=O)Cc4cc(OC(F)(F)F)ccc4F)nn3)nn2)cn1 [Example 383, 1-[4-(4-{2-[2-fluoro-5-(trifluoromethoxy)phenyl]acetamido}-1H-1,2,3-triazol-1-yl)butyl]-N-[(6-methylpyridin-3-yl)methyl]-1H-1,2,3-triazole-4-carboxamide] |  |
| < 100 | < 100 | Cc1ccc(CNC(=O)c2cn(CCC(F)Cn3cc(NC(=O)Cc4cc(OC(F)(F)F)ccc4F)nn3)nn2)cn1 (stereo not shown) [Example 376, 1-[3-fluoro-4-(4-{2-[2-fluoro-5-(trifluoromethoxy)phenyl]acetamido}-1H-1,2,3-triazol-1-yl)butyl]-N-[(6-methylpyridin-3-yl)methyl]-1H-1,2,3-triazole-4-carboxamide] |  |
